# In patent US20250352498A1, “PHARMACEUTICAL FORMULATIONS CONTAINING PHENYLBUTYRATE AND METHODS THEREOF” (AARDVARK THERAPEUTICS INC., priority 2024, published 2025):
substance,measurement,setting,value
sodium phenylbutyrate,solubility in hydrophilic solvent,hydrophilic solvent,highly soluble
same,solubility in hydrophobic excipients,hydrophobic excipients,poorly soluble
same,water solubility,water,freely water soluble
